The values below come from EP0307172A2, “Improvements in or relating to specific 5-HT3 antagonists” (ELI LILLY AND COMPANY, priority 1987, dated 1989).

One assay concerns cisplatin-induced emesis. In words: Blockade of cisplatin-induced emesis in dogs. Particulars: Canis lupus familiaris, iv, read-out: ED₅₀. In kind it is in vivo. The text has this:
These compounds may also be used as antiemetic agents. […] Since 5HT₃ receptors are prevalent in the GI tract, other potential uses include other diseases of the gastro- intestinal tract, such as ischemic bowel, esophageal reflux, etc.

A further assay addresses T1, 5-HT₃ receptor (Rattus norvegicus, UniProt P35563).
T1 construct: from tissue
T1 sequence (P35563 24-483): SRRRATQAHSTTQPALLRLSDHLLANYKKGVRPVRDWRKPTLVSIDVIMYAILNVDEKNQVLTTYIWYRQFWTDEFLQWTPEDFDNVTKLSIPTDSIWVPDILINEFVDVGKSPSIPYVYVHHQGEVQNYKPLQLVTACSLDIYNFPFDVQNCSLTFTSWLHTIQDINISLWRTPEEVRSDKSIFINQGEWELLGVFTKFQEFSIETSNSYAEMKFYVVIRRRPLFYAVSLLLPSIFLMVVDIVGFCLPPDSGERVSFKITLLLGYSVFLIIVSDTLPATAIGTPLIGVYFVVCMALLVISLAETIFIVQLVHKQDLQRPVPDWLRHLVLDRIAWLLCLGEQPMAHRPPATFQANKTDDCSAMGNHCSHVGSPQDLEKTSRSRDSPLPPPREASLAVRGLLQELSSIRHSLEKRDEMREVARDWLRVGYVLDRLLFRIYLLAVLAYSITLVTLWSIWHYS
In words: Inhibition of serotonin-induced Von Bezold-Jarisch reflex in rats. In kind it is in vivo. The note with it: rat, iv, 15 minutes prior to 5-HT, read-out: Percent Inhibition of Reflex in Rats; for inhibition at 0.001 mg/kg: 0.001 mg/kg I.V.; for inhibition at 0.003 mg/kg: 0.003 mg/kg I.V.; for inhibition at 0.01 mg/kg: 0.01 mg/kg I.V. An excerpt:
The compounds of Formula I of this invention are long-acting, orally effective specific 5-HT₃ receptor antagonists, rendering them useful for the treatment of migraine. Because of this mechanism, the compounds of this invention should also be useful for treating emesis, motion sickness, ischemic bowel disease, diabetic gastric paresis, relaxation of the gastro-intestinal tract for instrumentation, other gastro-intestinal pain following surgery, obstetrics or as in abdominal cramps, and for treating CNS disorders such as schizophrenia and anxiety. The ability of these compounds to antagonize the effects of 5-HT was assessed by their inhibition of the Von Bezold-Jarisch reflex induced by 5-HT injected intravenously into the rat (See Paintal, Physiol. Rev., 53, 159 (1973)). When administered by the intravenous route 15 minutes prior to the administration of 5-HT, the compounds of this invention were effective in inhibiting the serotonin-induced Bezold-Jarisch reflex as summarized in Table 1 below: Table 1

Structures are written as SMILES.

In general, inhibition refers to the relative decrease from the control value, in per cent. With `CN1[C@@H]2CC[C@H]1C[C@@H](NC(=O)c1cc(Cl)cc3c1OC(C)(C)C3)C2` [Example 19, Endo-5-chloro-2,3-dihydro-2,2-dimethyl-N-(8-methyl-8-azabicyclo[3.2.1.]oct-3-yl)-7-benzofurancarboxamide (Z)-2-butenedioate], the ED50 in the assay with cisplatin-induced emesis was 0.0356 mg/kg. At 5-HT₃ receptor, the inhibition at 0.001 mg/kg was 66% and the inhibition at 0.003 mg/kg worked out at 90%. In the case of `CC1(C)Cc2cc(Cl)cc(C(=O)NC3CN4CCC3CC4)c2O1` (stereo not drawn) [Example 49, 2,3-Dihydro-5-chloro-2,2-dimethyl-N-(1-azabicyclo[2.2.2]oct-3-yl)-7-benzofurancarboxamide (Z)-2-butenedioate], at 5-HT₃ receptor, the inhibition at 0.003 mg/kg came to 40% and the inhibition at 0.01 mg/kg was 89%.

As to `CN1[C@@H]2CC[C@H]1C[C@@H](OC(=O)c1cc(Cl)c3c(c1)CC(C)(C)O3)C2` [Example 29, Endo-2,2-dimethyl-7-chloro-2,3-dihydro-5-benzofurancarboxylic acid, 8-methyl-8-azabicyclo[3.2.1]oct-3-yl ester (Z)-2-butenedioate], the inhibition at 0.01 mg/kg at 5-HT₃ receptor was -4%. As for `CN1[C@@H]2CC[C@H]1C[C@@H](NC(=O)c1cccc3c1SC(C)(C)C3)C2` [Example 16, Endo-2,3-dihydro-2,2-dimethyl-N-(8-methyl-8-azabicyclo[3.2.1]oct-3-yl)benzo[b]thiophene-7-carboxamide (Z)-2-butenedioate], the inhibition at 0.01 mg/kg on 5-HT₃ receptor was determined as 0.1%. The same measure, in the same setting: with `CN1[C@@H]2CC[C@H]1C[C@@H](NC(=O)c1ccc(Cl)c3c1OC(C)(C)C3)C2` [Example 18, Endo-4-chloro-2,3-dihydro-2,2-dimethyl-N-(8-methyl-8-azabicyclo[3.2.1]oct-3-yl)-7-benzofurancarboxamide (Z)-2-butenedioate] the figure was 1.2%. Consider `CC1Cc2cccc(C(=O)N[C@H]3C[C@H]4CC[C@@H](C3)N4C)c2O1` (mixture of isomers) [Example 33, dl-endo-2,3-dihydro-2-methyl-N-(8-methyl-8-azabicyclo[3.2.1]oct-3-yl)-7-benzofurancarboxamide (Z)-2-butenedioate], for which the inhibition at 0.01 mg/kg at 5-HT₃ receptor is 22%. Further, the inhibition at 0.03 mg/kg at 5-HT₃ receptor (0.03 mg/kg I.V.) is 57%.

As for `Cc1cc2c(c(C(=O)N[C@H]3C[C@H]4CC[C@@H](C3)N4C)c1)OC(C)(C)C2` [Example 21, Endo-2,3-dihydro-2,2,5-trimethyl-N-(8-methyl-8-azabicyclo[3.2.1]oct-3-yl)-7-benzofurancarboxamide (Z)-2-butenedioate], at 5-HT₃ receptor, the inhibition at 0.001 mg/kg is 0.3%, the inhibition at 0.003 mg/kg came out at 11% and the inhibition at 0.01 mg/kg is 87%. In the case of `CN1[C@@H]2CC[C@H]1C[C@@H](NC(=O)c1cccc3c1CC(C)(C)O3)C2` [Example 22, Endo-2,3-dihydro-2,2-dimethyl-N-(8-methyl-8-azabicyclo[3.2.1]oct-3-yl)-4-benzofurancarboxamide (Z)-2-butenedioate], on 5-HT₃ receptor, the inhibition at 0.01 mg/kg was -4%. In the case of `CC1Cc2cc(Cl)cc(C(=O)N[C@H]3C[C@H]4CC[C@@H](C3)N4C)c2O1` (mixture of isomers) [Example 32, dl-endo-5-chloro-2,3-dihydro-2-methyl-N-(8-methyl-8-azabicyclo[3.2.1]oct-3-yl)-7-benzofurancarboxamide (Z)-2-butenedioate], on 5-HT₃ receptor, the inhibition at 0.001 mg/kg worked out at 58%, the inhibition at 0.003 mg/kg was 80% and the inhibition at 0.01 mg/kg was 80%. As for `CN1[C@@H]2CC[C@H]1C[C@@H](OC(=O)c1cc(Cl)cc3c1OC(C)(C)C3)C2` [Example 25, Endo-5-chloro-2,3-dihydro-2,2-dimethyl-7-benzofurancarboxylic acid, 8-methyl-8-azabicyclo[3.2.1]oct-3-yl ester (Z)-2-butenedioate], at 5-HT₃ receptor, the inhibition at 0.001 mg/kg is 10%, the inhibition at 0.003 mg/kg was found to be 19% and the inhibition at 0.01 mg/kg was 83%. For the molecule `Cc1cc2c(c(C(=O)O[C@H]3C[C@H]4CC[C@@H](C3)N4C)c1)OC(C)C2` (mixture of isomers) [Example 40, dl-endo-2,3-dihydro-2,5-dimethyl-7-benzofurancarboxylic acid, 8-methyl-8-azabicyclo[3.2.1]oct-3-yl ester (Z)-2-butenedioate], on 5-HT₃ receptor, the inhibition at 0.001 mg/kg was determined as 3%, the inhibition at 0.003 mg/kg was determined as 14% and the inhibition at 0.01 mg/kg is 67%. In the case of `CN1C2CCC1CC(NC(=O)c1cc(F)cc3c1OC(C)(C)C3)C2` (stereo not drawn) [Example 58, 5-Fluoro-2,3-dihydro-2,2-dimethyl-N-(8-methyl-8-azabicyclo[3.2.1]oct-3-yl)-7-benzofurancarboxamide (Z)-2-butenedioate], the inhibition at 0.01 mg/kg on 5-HT₃ receptor came to 71%. On to `CC1(C)Cc2cccc(C(=O)NC3CN4CCC3CC4)c2O1` (stereo not drawn) [Example 60, 2,3-Dihydro-2,2-dimethyl-N-(1-azabicyclo[2.2.2]oct-3-yl)-7-benzofurancarboxamide (Z)-2-butenedioate], for which, on 5-HT₃ receptor, the inhibition at 0.001 mg/kg came to 25% and the inhibition at 0.003 mg/kg was found to be 87%. Regarding `CN1[C@@H]2CC[C@H]1C[C@@H](NC(=O)c1c(Cl)ccc3c1OC(C)(C)C3)C2` [Example 50, Endo-2,2-dimethyl-2,3-dihydro-6-chloro-N-(8-methyl-8-azabicyclo[3.2.1]oct-3-yl)-7-benzofurancarboxamide (Z)-2-butenedioate], the inhibition at 0.01 mg/kg on 5-HT₃ receptor is -3%.
